System: adult female subjects with severe postpartum depression (PPD)
Assay: Phase 3 PPD study (NCT02978326): safety, TEAEs and NNH
Type: in vivo, human
Method: Safety Endpoints: Safety and tolerability of study drug was evaluated by frequency of adverse events; severity, relatedness, and seriousness of adverse events; clinical laboratory measures, vital signs, ECGs; and concomitant medication usage. Suicidality was monitored using the C-SSRS.
Adverse events were coded using Medical Dictionary for Regulatory Activities (MedDRA™) Version 19.1 or higher. […] The incidence of adverse events was also presented by maximum severity and relationship to study drug. Vital signs, clinical laboratory measures, ECG, concomitant medication usage, and C-SSRS data was summarized by treatment, where applicable. Out-of-range safety endpoints could be categorized as low or high, where applicable. Safety data was summarized and examined for possible relationships between subject characteristics and plasma Compound (1) concentrations, as appropriate. Suicidality data collected using the C-SSRS at baseline and at each visit during the active Treatment Period was listed for all subjects. The C-SSRS listings included behavior type and/or category for suicidal ideation and suicidal behavior of the C-SSRS.
Sustained Response or Remission was defined as continued categorization of a Responder/Remitter at both days 15 and 45. Tolerability and safety outcomes included number needed to harm (NNH) for discontinuation due to an AE, as well as individual safety events of interest. NNH was calculated for (1) AEs with incidence ≥2% with Compound (1) and higher rate than placebo, and (2) the proportion of patients in each treatment arm discontinuing the study drug due to an AE. 95% confidence intervals (CIs) were calculated based upon Wilson score intervals.

C[C@@]1(O)CC[C@H]2[C@H](CC[C@@H]3[C@@H]2CC[C@]2(C)[C@@H](C(=O)Cn4cc(C#N)cn4)CC[C@@H]32)C1 [Compound (1), 1-(2-((3R,5R,8R,9R,10S,13S,14S,17S)-3-hydroxy-3,13-dimethylhexadecahydro-1H-cyclopenta[a]phenanthren-17-yl)-2-oxoethyl)-1H-pyrazole-4-carbonitrile]
Loss of consciousness or syncope (30 mg): no reports of loss of consciousness or syncope
NNH vs placebo: AE leading to treatment discontinuation (30 mg): 78 (ns)
NNH vs placebo: Diarrhoea (30 mg): 28 (ns)
NNH vs placebo: Dizziness (30 mg): 46 (ns)
NNH vs placebo: Dry mouth (Gastrointestinal disorders) (30 mg): 26 (ns)
NNH vs placebo: Dry mouth (under Infections and infestations) (30 mg): 41 (ns)
NNH vs placebo: Fatigue (30 mg): 41 (ns)
NNH vs placebo: Pain in extremity (30 mg): 84 (ns)
NNH vs placebo: Sedation (30 mg): 20 (ns)
NNH vs placebo: Somnolence (30 mg): 23 (ns)
NNH vs placebo: Upper respiratory tract infection (30 mg): 16 (ns)
Overall tolerability (30 mg): generally well tolerated
Diarrhoea (30 mg (N = 78)): 5 (6.4%) n (%)
Dizziness (30 mg (N = 78)): 6 (7.7%) n (%)
Dry mouth (Gastrointestinal disorders) (30 mg (N = 78)): 3 (3.8%) n (%)
Dry mouth (listed under Infections and infestations) (30 mg (N = 78)): 3 (3.8%) n (%)
Fatigue (30 mg (N = 78)): 3 (3.8%) n (%)
Pain in extremity (30 mg (N = 78)): 2 (2.6%) n (%)
Sedation (30 mg (N = 78)): 4 (5.1%) n (%)
Somnolence (30 mg (N = 78)): 12 (15.4%) n (%)
Subjects with an AE leading to treatment discontinuation (30 mg (N = 78)): 1 (1.3%) n (%)
Upper respiratory tract infection (30 mg (N = 78)): 6 (7.7%) n (%)
Patients with a TEAE whose TEAEs were mild and moderate in severity (clinical trial of Example 4): 94%

Source: patent publication US20240216395A1, “19-NOR C3,3-DISUBSTITUTED C21 -N-PYRAZOLYL STEROID FOR USE IN TREATING MAJOR DEPRESSIVE DISORDER AND […]” (priority 2021, published 2024)
